Patent US6703485B2, “Brain and heart cyclic nucleotide gated ion channel compounds and uses thereof” (The Trustees of Columbia University in the City of New York, priority 1997, dated 2004)
“And” between values parts separate entries of the source, which are not always exact repeats. Equal values may be shown once.

Legend:
Pacemaker channel = settings: myocardial ischemia, Schlack et al., 1998; cited from earlier work
[1] = target: T1, bovine photoreceptor CNG channels (Bos taurus, UniProt Q00194); settings: Kramer and Tibbs, 1996; cited from earlier work
T1 sequence (Q00194 1-690): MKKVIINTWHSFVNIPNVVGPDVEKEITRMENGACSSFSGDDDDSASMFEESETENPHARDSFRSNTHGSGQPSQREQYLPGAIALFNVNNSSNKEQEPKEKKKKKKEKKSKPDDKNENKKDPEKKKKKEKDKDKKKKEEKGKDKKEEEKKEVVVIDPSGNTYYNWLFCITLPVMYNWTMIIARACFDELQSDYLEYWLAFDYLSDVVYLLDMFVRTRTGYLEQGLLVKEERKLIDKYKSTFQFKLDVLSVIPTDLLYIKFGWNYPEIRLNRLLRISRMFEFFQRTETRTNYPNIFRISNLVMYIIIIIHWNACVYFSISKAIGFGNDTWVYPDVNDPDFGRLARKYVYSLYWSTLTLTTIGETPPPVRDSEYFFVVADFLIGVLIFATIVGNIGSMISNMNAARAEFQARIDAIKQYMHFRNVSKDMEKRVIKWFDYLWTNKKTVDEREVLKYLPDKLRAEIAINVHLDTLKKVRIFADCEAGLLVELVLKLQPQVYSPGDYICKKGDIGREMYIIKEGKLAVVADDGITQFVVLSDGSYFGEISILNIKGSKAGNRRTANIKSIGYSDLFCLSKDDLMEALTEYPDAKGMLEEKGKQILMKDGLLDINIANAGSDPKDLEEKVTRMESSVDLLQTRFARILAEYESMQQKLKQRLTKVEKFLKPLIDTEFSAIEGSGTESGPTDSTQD

If in sino-atrial node = settings: DiFrancesco and Tortora, 1991; cited from earlier work
Ih in sensory neurons = settings: Ingram and Williams; cited from earlier work
[2] = system: Ih in hippocampal neurons; settings: Pedarzani and Storm, 1995; cited from earlier work
mBCNG-1 channel = target: T2, mBCNG-1 channel (Mus musculus, UniProt O88704); type: biochemical
T2 construct: expressed in transfected cells; host or cells: Xenopus oocytes injected with cRNA (pSD64TR vector, SP6 transcript); cell-free inside-out and outside-out patches
T2 sequence (O88704 whole entry): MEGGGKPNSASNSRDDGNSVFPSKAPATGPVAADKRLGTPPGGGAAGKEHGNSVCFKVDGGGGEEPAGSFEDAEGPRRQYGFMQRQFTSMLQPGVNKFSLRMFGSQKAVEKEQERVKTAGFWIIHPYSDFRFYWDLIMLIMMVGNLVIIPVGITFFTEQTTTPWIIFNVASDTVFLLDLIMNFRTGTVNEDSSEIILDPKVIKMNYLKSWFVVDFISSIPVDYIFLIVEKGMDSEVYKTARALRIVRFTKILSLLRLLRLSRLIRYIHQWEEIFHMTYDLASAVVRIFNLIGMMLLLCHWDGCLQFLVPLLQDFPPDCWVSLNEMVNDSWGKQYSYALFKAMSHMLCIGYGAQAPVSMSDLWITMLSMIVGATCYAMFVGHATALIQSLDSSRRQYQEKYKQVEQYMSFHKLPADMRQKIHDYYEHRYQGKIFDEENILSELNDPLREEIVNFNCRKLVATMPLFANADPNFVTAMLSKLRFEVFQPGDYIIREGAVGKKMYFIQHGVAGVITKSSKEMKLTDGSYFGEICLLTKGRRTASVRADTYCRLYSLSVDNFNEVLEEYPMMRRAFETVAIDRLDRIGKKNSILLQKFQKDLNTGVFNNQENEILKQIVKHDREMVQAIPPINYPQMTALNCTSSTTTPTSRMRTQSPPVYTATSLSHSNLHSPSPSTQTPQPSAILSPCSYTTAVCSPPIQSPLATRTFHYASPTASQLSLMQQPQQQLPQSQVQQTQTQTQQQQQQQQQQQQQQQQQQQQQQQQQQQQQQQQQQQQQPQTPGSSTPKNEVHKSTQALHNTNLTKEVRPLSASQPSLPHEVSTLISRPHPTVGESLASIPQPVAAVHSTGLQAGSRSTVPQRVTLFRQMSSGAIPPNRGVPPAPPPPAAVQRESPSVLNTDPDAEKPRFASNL

## CCN(c1ccccc1)c1cc(=NC)n(C)c(C)n1.Cl [ZD 7288]
Pacemaker channel
  Effect on infarct size: reduce infarct size

## Nc1nc2c(ncn2[C@@H]2O[C@@H]3COP(O)(=S)O[C@H]3[C@H]2O)c(=O)[nH]1 (stereo partly shown) [Sp-cGMPS]
[1]
  Effect on channel opening: agonist

## Nc1nc2c(ncn2[C@@H]2O[C@@H]3COP(O)(=S)O[C@H]3[C@H]2O)c(=O)[nH]1 (stereo partly shown) [Rp-cGMPS]
[1]
  Effect on channel opening: antagonist of channel opening

## Nc1ncnc2c1ncn2[C@@H]1O[C@@H]2COP(=O)(O)O[C@H]2[C@H]1O [cAMP]
If in sino-atrial node
  cAMP-dependent shift of If: 10 mV
Ih in sensory neurons
  cAMP-dependent shift of Ih: 4-6 mV
[2]
  cAMP-dependent shift of Ih: 2-3 mV

## [Ba+2] [Ba]
mBCNG-1 channel; 1 mM Ba in external solution, outside-out patch, n=3
  mean percent inhibition of mBCNG-1 current: 0±5%

## [Cl-].[Cs+] [Cs]
mBCNG-1 channel
  % inhibition of mBCNG-1 current: 92.4±2.5%
  Hill coefficient for inhibition of mBCNG-1 current by Cs: ~1 and 1.08
mBCNG-1 channel; read-out: IC50 for inhibition of mBCNG-1 current by Cs
  IC50: ~200 µM and 201 µM
